Data from patent US6548715B1, “Structural analogues of vitamin D” (Laboratoire Theramex S.A., priority 1993, dated 2003).

Legend:
vitamin D receptor = target: T1, vitamin D receptor (Sus scrofa, UniProt A3RGC1); conditions: % of the activity of 1α,25-(OH)2D3 at 50% of its activity (B50); 1α,25-(OH)2D3 assigned 100%
T1 sequence (A3RGC1 1-427): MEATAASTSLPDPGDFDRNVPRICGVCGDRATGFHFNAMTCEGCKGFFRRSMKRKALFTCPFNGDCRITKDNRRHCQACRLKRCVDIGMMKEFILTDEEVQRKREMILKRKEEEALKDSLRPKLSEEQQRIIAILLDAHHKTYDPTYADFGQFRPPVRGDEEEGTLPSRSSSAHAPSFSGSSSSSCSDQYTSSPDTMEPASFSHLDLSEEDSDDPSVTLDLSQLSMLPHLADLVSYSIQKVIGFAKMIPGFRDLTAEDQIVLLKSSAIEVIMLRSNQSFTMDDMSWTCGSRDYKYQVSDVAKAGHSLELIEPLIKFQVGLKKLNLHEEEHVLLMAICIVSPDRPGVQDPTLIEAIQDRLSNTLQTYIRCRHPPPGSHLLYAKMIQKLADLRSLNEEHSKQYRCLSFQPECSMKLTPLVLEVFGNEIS

HL-60 cells = assay: HL-60 cell differentiation (NBT reduction); format: cell-based; conditions: % of the activity of 1α,25-(OH)2D3 at 50% of its activity (B50); human leukemia cells
Method: (§1) HL-60 cells were seeded at 1.2×10^5 cells/ml and 1α,25-(OH)2D3 or its anologs were added in ethanol (final concentration <0.2%) in RPMI 1640 medium supplemented with 10% heat-inactivated fetal calf serum (FCS) for 4 d at 37° C. Cells were then assayed for maturation by NBT reduction assay as described (22) using a hemacytometer, or for proliferation by cell counting and [^3H] thymidine incorporation. MG 63 cells, seeded at 5×10^3 cells/ml in 96 well flat bottomed culture plates (Falcon, Becton Dickinson, N.J.) in a volume of 0.2 ml of DMEM and 2% FCS, were incubated with 1α,25-(OH)2D3 or its analogues for 72 h. Osteocalcin was then measured in the culture medium using a homologous human osteocalcin RIA (39). Breast carcinoma cells (MCF-7 or GR) were grown in DMEM/nut.mix F-12 (HAM) medium supplemented with 10% FCS. Cells (5000/Well) were incubated during 24 h in 96 well tissue culture plates (Falcon 3072) followed by a 72 h incubation with/without 1α,25-(OH)2D3 or analogues. The cells were then incubated with [^3H]thymidine (1 μCi/well) for 4 h and harvested thereafter in NaOH (0.1 M) and the radioactivity counted. The protein content of the cells was measured by the Pierce BCA protein assay (Rockford, Ill.).

MG-63 cells = assay: MG-63 osteosarcoma cells, osteocalcin secretion; format: cell-based; conditions: % of the activity of 1α,25-(OH)2D3 at 50% of its activity (B50); human osteosarcoma cells
Method: as §1

[1] = target: T2, human DBP (vitamin D binding protein) (Homo sapiens, UniProt P02774); assay: Relative affinity for purified human vitamin D-binding protein (hDBP); conditions: % of the activity of 1α,25-(OH)2D3 at 50% of its activity (B50)
T2 sequence (P02774 17-474): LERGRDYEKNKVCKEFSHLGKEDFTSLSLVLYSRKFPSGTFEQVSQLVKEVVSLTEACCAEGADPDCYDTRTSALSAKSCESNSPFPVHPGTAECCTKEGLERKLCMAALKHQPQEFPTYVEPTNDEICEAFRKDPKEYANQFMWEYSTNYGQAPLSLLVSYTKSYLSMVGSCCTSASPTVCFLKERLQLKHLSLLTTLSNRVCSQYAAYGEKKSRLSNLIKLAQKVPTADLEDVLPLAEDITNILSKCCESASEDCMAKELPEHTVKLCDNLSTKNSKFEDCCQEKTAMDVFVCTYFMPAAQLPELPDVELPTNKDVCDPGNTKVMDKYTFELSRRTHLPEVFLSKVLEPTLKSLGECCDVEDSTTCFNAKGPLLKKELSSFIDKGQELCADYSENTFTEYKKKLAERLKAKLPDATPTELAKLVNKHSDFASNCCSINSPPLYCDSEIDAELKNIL

[2] = system: human normal keratinocytes; assay: Human keratinocyte proliferation ([3H]thymidine incorporation); format: cell-based; conditions: % of the activity of 1α,25-(OH)2D3 at 50% of its activity (B50)
Method: to evaluate the effects on cell proliferation of non-malignant cells and especially to evaluate their potential for use for dermatological disorders, the new compounds were tested in cultures of human normal keratinocytes.
Human skin keratinocytes were isolated and cultured using a modification of the method of Kitano and Okada (38).
Briefly, the skin from biopsies of patients with breast tumors, was cutted into pieces measuring 3-5 mm and soaked overnight at 4° C. in a solution of dispase (20 Boehringer units/ml). The epidermis was peeled from the dermis, washed with calcium- and magnesium-free phosphate buffered saline and incubated and shaked in a 0.25% trypsin solution for 10 min at room temperature. The reaction was then stopped by addition of PBS containing 10% FCS. The cells were collected after centrifugation at 4° C. for 10 min at 800 rpm. After an additional washing with PBS, the pellet was suspended in culture medium into 25 cm^2 primaria flasks from Becton Dickinson. The keratinocytes were cultivated at 37° C. in an atmosphere of 5% CO2 in air. A few hours later, the medium was replaced by new one. The medium [Keratinocyte Medium from Gibco containing Epidermal Growth Factor (5 ng/ml), Bovine Pituitary Extract (35-50 μg/ml) and antibiotics] was renewed every other day until confluency.
Keratinocytes were cultured in 96-well plate and, after 24 hours, were treated with various concentrations of vitamin D analogues, followed by pulse labelling with 1 μCi of [^3H]thymidine for 3 hours. Cultures were washed 3 times with PBS and twice with 10% (v/v) ice cold trichloroacetic acid. Cells were solubilized with 1 M NaOH and radioactivity was counted in a scintillation counter.

[3] = system: vitamin D-deficient chicks; assay: Calcemic effect in vitamin D-deficient chicks (serum calcium); format: in vivo, chick; conditions: % of the activity of 1α,25-(OH)2D3 at 50% of its activity (B50); vitamin D-deficient chicks injected 10 consecutive days
Method: The antirachitic activity of the analogues was tested in 3 weeks old vitamin D-deficient chicks injected for 10 consecutive days with 1α,25-(OH)2D3 or its analogues (22,23). Serum calcium (by atomic absorptiometry) and osteocalcin (by specific RIA), duodenal calbindin D-28K (by RIA) and bone calcium content were measured. The hypercalcemic effect of the most interesting anologues was also tested in vitamin D-replete normal NMRI mice by daily sc injection of 1α,25-(OH)2D3, its analogues or the solvent for 7 consecutive days, using serum, bone and urinary calcium excretion and serum osteocalcin (by specific mouse RIA) as parameters (40).

MCF-7 cells = assay: MCF-7 breast cancer cell proliferation ([3H]thymidine incorporation); format: cell-based; conditions: % of the activity of 1α,25-(OH)2D3 at 50% of its activity (B50); human breast cancer cells
Method: as §1

| Structure (SMILES) | Affinity for pig receptor (vitamin D receptor) | Cell differentation/cell proliferation HL-60 (HL-60 cells) | Cell differentation/cell proliferation MG-63 (MG-63 cells) | Affinity for human DBP [1] | Cell differentation/cell proliferation keratinocytes [2] | Ca serum chick [3] | Cell differentation/cell proliferation MCF-7 (MCF-7 cells) |
| --- | --- | --- | --- | --- | --- | --- | --- |
| C=C1C(=CC=C2CCCC3C2CCC3C(C)CCCC(C)(C)O)CC(O)CC1O (stereo not drawn) [Compound 3] | 100% | 720% | 75% | 10% |  |  |  |
| CC(CC#CC(C)(C)O)C1CCC2C(=CC=C3CC(O)CC(O)C3)CCCC21C (stereo not drawn) [Compound 44] | 26% | 320% | 150% | 2% | 700% | 0.1% | 1000% |
| CC(CCCCC(C)(C)O)C1CCC2C(=CC=C3CC(O)CC(O)C3)CCCC21C (stereo not drawn) [Compound 54] | 20% | 30% | 10% | 1% |  | 0.4% |  |
| CCC(O)(CC)CCCCC(C)C1CCC2C(=CC=C3CC(O)CC(O)C3)CCCC21C (stereo not drawn) [Compound 55] | 30% | 65% | 3% | 0% |  | 0.3% |  |
| CC(CCCC(C)(C)O)C1CCC2C(=CC=C3CC(O)CC(O)C3)CCC(O)C21 (stereo not drawn) [Compound 2] | 0% | 75% | 4.5% | 0% |  |  |  |
| C=C1/C(=C\C=C2/CCC[C@](C)([C@H](C)[C@H](C)CCCC(C)(C)O)C2)C[C@@H](O)C[C@@H]1O [Compound 7] | 60% | 1000% | 700% | 20% |  | 5% | 6000% |
| CC(CCCC(C)(C)O)C1CCC2C(=CC=C3CC(O)CC(O)C3)CCCC21C (stereo not drawn) [Compound 43] | 25% | 40% | 100% | 7% | 100% | 0.1% | 20% |
| CC(CC#CC1(C)CO1)C1CCC2C(=CC=C3CC(O)CC(O)C3)CCCC21C (mixture of isomers) [Compound 45] | 2.5% | 80% | 10% | 1.5% |  | 1% | 20% |
| CC1=C(/C=C\C2=CCC[C@](C)([C@H](C)[C@H](C)CC[C@@H](O)C(C)C)C2)C[C@@H](O)C[C@@H]1O [Compound 58] | 3% | 650% | 115% | 1% | 1000% | <1% | 700% |
